Source: ChEMBL document CHEMBL1201862, “PubChem BioAssay data set” (2004)
Calls of active or inactive are those of the source.

What was measured:
[1] = target: T1, Protein RecA (Mycobacterium tuberculosis, UniProt P9WHJ3); experiment: Fluorescence Cell-Free Homogeneous Dose Retest to Identify Inhibitors of RecA-Intein Splicing Activity. [Related pubchem assays (depositor defined):AID2097, AID2223, AID489010, AID492950]; assay type: functional
T1 sequence (P9WHJ3 whole entry): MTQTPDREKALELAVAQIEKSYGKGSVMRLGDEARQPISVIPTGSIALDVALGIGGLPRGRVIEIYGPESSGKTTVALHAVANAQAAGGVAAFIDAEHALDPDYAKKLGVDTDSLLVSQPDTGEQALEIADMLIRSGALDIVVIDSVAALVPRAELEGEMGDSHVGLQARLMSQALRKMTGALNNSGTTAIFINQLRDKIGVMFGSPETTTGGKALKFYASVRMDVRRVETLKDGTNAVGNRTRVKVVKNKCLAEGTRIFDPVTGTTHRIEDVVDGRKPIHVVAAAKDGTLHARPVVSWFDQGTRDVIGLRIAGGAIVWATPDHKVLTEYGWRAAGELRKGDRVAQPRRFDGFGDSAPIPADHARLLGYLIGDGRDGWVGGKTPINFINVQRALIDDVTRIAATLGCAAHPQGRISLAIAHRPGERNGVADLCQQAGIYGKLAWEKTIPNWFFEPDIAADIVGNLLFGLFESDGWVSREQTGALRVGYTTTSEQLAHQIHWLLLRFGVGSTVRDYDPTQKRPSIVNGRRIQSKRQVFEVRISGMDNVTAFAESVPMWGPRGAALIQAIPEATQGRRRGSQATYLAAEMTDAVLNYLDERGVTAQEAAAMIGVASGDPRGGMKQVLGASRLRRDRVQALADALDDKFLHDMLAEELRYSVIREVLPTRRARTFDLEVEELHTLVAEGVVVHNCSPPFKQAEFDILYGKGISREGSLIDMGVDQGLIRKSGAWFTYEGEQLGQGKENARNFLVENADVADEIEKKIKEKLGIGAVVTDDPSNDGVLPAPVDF

[2] = target: Genome polyprotein (dengue virus type 2, UniProt P29990); experiment: flavivirus cap methylation enzyme inhibition – biochemical, confirmation dose response, primary screen (AID 588689); assay type: functional
Chain of Genome polyprotein (P29990 2492-3391 limits assumed): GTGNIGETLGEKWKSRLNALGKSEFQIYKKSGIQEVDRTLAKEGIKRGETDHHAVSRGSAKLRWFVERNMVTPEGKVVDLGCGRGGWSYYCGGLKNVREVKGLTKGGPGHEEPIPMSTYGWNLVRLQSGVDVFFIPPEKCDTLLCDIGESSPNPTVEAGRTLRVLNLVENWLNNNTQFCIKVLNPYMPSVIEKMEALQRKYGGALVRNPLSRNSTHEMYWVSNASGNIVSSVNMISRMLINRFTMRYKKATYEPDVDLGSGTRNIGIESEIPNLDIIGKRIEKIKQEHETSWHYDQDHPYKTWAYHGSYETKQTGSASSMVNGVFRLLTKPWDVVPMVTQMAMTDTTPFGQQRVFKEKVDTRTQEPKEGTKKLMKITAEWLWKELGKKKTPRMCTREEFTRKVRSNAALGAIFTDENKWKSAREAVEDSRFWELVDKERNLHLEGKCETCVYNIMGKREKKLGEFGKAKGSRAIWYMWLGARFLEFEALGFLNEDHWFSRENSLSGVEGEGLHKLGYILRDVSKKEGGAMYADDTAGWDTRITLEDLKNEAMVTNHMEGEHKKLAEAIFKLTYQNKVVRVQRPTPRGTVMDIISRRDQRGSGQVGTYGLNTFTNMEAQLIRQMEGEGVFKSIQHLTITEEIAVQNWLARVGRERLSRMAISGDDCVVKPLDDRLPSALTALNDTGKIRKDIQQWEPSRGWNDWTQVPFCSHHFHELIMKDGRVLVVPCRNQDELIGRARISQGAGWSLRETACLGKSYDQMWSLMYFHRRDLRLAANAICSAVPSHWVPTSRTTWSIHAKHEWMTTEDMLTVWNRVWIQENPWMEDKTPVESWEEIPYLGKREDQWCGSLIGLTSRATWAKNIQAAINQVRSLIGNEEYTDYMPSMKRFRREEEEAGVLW

[3] = target: T2, Tyrosyl-DNA phosphodiesterase 2 (Homo sapiens, UniProt O95551); experiment: potency against TDP2 phosphodiesterase activity – biochemical, epi absorbance, IC50, dose response (AID 743297)
T2 sequence (O95551 whole entry): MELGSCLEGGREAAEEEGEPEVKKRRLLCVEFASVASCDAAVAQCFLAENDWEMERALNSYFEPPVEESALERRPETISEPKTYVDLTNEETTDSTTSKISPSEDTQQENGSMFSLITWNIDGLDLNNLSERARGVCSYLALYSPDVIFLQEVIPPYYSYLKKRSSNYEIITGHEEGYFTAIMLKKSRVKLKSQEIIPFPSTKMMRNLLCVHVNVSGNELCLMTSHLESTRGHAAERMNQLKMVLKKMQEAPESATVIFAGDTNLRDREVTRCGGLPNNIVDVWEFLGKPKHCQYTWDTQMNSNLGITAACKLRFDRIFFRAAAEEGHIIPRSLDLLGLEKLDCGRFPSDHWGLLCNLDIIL

[4] = target: Bifunctional protein GlmU (Mycobacterium tuberculosis, UniProt P9WMN3); experiment: Inhibitors of Mycobacterial Glucosamine-1-phosphate acetyl transferase (GlmU). Secondary screen.; set-up: species or system Mycobacterium tuberculosis H37Rv
Chain of Bifunctional protein GlmU (P9WMN3 whole entry): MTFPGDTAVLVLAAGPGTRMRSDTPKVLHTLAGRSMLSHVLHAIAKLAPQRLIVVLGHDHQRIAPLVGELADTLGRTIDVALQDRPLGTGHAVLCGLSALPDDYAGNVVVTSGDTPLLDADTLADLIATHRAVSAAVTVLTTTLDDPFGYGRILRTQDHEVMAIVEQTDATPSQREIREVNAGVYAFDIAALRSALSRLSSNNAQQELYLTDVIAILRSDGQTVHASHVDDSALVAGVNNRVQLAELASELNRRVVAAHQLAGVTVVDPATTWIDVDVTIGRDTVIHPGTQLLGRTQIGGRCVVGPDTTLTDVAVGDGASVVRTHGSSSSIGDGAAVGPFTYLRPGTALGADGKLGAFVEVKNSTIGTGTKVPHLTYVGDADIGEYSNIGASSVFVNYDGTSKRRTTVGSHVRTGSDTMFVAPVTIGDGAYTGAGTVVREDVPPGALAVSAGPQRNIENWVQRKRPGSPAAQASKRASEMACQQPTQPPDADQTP

[5] = mitochondrial function rescue without frataxin homolog – Friedreich's ataxia, plus single-dose screen, dose response (AID 1465); assay type: functional;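 note: yeast depleted of Yfh1p frataxin homolog grown on glycerol needing respiration; WST-1 tetrazolium dye reduction as measure of cellular dehydrogenase metabolic activity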
[6] = target: Induced myeloid leukemia cell differentiation protein Mcl-1 (Homo sapiens, UniProt Q07820); assay type: functional
Chain of Induced myeloid leukemia cell differentiation protein Mcl-1 (Q07820 whole entry): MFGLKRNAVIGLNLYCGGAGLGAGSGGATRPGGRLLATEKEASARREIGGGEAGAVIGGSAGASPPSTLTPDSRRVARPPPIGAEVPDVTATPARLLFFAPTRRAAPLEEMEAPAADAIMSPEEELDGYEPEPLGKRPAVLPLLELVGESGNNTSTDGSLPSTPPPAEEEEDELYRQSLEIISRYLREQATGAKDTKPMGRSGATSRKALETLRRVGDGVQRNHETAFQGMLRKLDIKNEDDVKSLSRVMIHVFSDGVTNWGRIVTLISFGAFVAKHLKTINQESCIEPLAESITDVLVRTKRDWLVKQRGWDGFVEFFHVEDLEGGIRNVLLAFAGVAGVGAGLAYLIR

[7] = target: T3, Endoribonuclease toxin MazF (Escherichia coli K-12, UniProt P0AE70); experiment: activation of MazEF endoribonuclease cleavage – biochemical, fluorescence, single-stranded RNA substrate, uHTS hits, dose response (AID 588481); assay type: functional
T3 sequence (P0AE70 whole entry): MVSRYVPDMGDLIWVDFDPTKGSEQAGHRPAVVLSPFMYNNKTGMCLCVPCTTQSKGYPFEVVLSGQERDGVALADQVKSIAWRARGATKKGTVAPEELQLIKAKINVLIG

[8] = target: T3, Endoribonuclease toxin MazF; experiment: substrate-only fluorescence increase artefacts – biochemical, single-stranded RNase substrate, counter-screen for MazEF activator project, dose response (AID 588502); assay type: functional
[9] = target: T4, 1-phosphatidylinositol 4,5-bisphosphate phosphodiesterase beta-3 (Homo sapiens, UniProt Q01970); experiment: Fluorescence-based biochemical high throughput dose response assay to identify inhibitors of phospholipase C isozymes (PLC-B3).
T4 sequence (Q01970 whole entry): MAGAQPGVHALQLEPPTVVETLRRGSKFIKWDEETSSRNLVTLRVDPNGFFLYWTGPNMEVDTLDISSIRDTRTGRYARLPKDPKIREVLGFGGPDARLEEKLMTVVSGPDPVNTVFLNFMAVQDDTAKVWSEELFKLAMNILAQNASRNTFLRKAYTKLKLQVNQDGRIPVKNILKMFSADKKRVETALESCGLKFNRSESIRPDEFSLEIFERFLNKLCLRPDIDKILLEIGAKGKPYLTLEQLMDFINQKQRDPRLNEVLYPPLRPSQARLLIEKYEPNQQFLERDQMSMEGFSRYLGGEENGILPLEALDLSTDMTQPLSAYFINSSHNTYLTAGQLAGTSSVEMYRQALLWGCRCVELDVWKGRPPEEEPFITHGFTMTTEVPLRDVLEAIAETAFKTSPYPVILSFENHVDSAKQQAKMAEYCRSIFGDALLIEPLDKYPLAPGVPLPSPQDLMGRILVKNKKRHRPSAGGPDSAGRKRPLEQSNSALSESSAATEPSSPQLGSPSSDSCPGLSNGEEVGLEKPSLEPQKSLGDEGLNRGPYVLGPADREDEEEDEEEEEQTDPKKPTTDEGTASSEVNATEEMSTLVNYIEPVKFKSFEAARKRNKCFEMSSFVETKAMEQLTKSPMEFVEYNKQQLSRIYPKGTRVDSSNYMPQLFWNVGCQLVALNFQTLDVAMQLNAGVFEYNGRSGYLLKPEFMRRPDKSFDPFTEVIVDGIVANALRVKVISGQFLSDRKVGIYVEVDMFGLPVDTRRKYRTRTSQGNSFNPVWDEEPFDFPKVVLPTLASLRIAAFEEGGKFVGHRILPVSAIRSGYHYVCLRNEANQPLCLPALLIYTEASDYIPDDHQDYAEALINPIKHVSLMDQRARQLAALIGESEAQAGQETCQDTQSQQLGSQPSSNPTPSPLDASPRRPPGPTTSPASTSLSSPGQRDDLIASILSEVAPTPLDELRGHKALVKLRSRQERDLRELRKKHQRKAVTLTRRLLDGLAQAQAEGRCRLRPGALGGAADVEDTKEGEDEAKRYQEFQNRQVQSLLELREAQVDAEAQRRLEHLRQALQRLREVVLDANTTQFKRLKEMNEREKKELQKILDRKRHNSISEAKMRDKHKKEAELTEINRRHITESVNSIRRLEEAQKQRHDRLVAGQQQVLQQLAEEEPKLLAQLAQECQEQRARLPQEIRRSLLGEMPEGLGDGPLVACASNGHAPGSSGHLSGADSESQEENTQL

COC(=O)c1ccc(-c2ccc(C(c3c(C)[nH][nH]c3=O)c3c(C)[nH][nH]c3=O)o2)cc1
EC50 [1]: 0.348 µM (active) | IC50 [2]: > 100 µM (active) | IC50 [3]: 74.3 µM (inactive)

Oc1ccc(/C=N/NC(=S)Nc2cccnc2)c(O)c1O
IC50 [4]: 83 µM (active) | EC50 [5]: > 100 µM (active) | IC50 [6]: 19.5 µM (active) | IC50 [2]: 24.4 µM (active) | EC50 [7]: > 99 µM (inactive) | EC50 [8]: > 99 µM (inactive) | IC50 [9]: > 122 µM (inactive)
